Source: US20220040280A1, “INHIBITORS AND USES THEREOF” (UNIVERSITY OF CANBERRA, priority 2016, published 2022)

Tests used:
[1] = target: T1, LSD1 (Homo sapiens, UniProt O60341); experiment: Nuclear LSD1 in MCF7 cells treated with LSD1 inhibitors, confocal microscopy; type: cell-based; conditions: MCF7 cells stimulated with PMA for 60 hours, FIGS. 28 and 29
T1 construct: endogenous in cells; host or cells: MCF7 (non-stimulated or PMA-stimulated) and MDA-MB-231 breast cancer cells
Experimental: (§1) Confocal laser scanning microscopy was performed on either MDA-MB-231 cells treated with vehicle alone or MCF7 cells treated with vehicle alone or PMA for 60 h, and subsequently treated with a test inhibitor or vehicle alone. Test inhibitors include LSD1 siRNA or LSD1 catalytic inhibitors NCD36 (2-[N-(4-phenylbenzenecarbonyl)]amino-6-(trans-2-phenylcyclopropan-1-amino)-N-(3-methylbenzyl)hexanamide hydrochloride) or pargyline (Parg). Cells were fixed with 3.7% formaldehyde and permeabilized with 2% Triton-X-100, and then probed with a primary mouse antibody to LSD1 and a primary goat antibody to SNAIL, respectively, followed by the corresponding secondary antibodies conjugated to Alexa-Fluor 488 and […], respectively. TNFI values for MDA-MB-231, non-stimulated MCF7 and stimulated MCF7 cells were calculated. Data shown represent the mean±SE for at least 20 individual cells.

[2] = test system: SNAIL; experiment: Nuclear SNAIL in MCF7 cells treated with LSD1 inhibitors, confocal microscopy; type: cell-based, human; conditions: MCF7 cells stimulated with PMA for 60 hours, FIGS. 28 and 29
Experimental: as §1

[3] = test system: SNAIL; experiment: Nuclear SNAIL in MDA-MB-231 cells treated with LSD1 inhibitors, confocal microscopy; type: cell-based, human; conditions: FIG. 30
Experimental: as §1

[4] = target: T1, LSD1; experiment: Nuclear LSD1 in MDA-MB-231 cells treated with LSD1 inhibitors, confocal microscopy; type: cell-based; conditions: FIG. 30
Experimental: as §1

[5] = test system: SNAIL; experiment: Confocal microscopy of SNAIL in xenografted MDA-MB-231 cells; type: in vivo, mouse; conditions: xenograft MDA-MB-231 cells; Abraxane 60 mg/kg, Docetaxel 10 mg/kg; relative to vehicle
Excerpt: (§2) Cells were probed with either rabbit antibodies to LSD1s111p (Merck ABE1462), EGFR (AB2430), MET (ab51067), PD-L1 (sc-50298), goat antibodies to PD-L1 (sc-19091), SC-14033), (sc-19096), mouse antibodies to Cytokeratin (Miltenyi 130-090-866), CSV (Abnova H00007431-M08), vimentin (SC-6260) followed by visualisation with secondary anti mouse Alexa-Fluor 568 (A10037), secondary anti rabbit Alexa-Fluor 488 (A21206) or secondary anti goat Alexa-Fluor 633 (A21082).

[6] = test system: EGFR; experiment: Confocal microscopy of EGFR in xenografted MDA-MB-231 cells; type: in vivo, mouse; conditions: xenograft MDA-MB-231 cells; Abraxane 60 mg/kg, Docetaxel 10 mg/kg, Phenelzine 41 mg/kg; relative to vehicle control
Excerpt: as §2

[7] = test system: MET; experiment: Confocal microscopy of MET in xenografted MDA-MB-231 cells; type: in vivo, mouse; conditions: xenograft MDA-MB-231 cells; Abraxane 60 mg/kg, Docetaxel 10 mg/kg, FIG. 11
Excerpt: as §2

[8] = test system: LSD1s111p; experiment: Confocal microscopy of LSD1s111p in xenografted MDA-MB-231 cells; type: in vivo, mouse; conditions: xenograft MDA-MB-231 cells; Abraxane 60 mg/kg, Docetaxel 10 mg/kg, Phenelzine 41 mg/kg; relative to vehicle control
Excerpt: as §2
The nuclear intensity of LSD1s111p was measured using confocal laser scanning microscopy in xenografted MDA-MB-231 cells treated with vehicle alone or Abraxene (60 mg/kg) or Docetaxel (10 mg/kg). Cells were fixed with 3.7% formaldehyde and permeabilized with 2% Triton-X-100, and then probed with a primary rabbit antibody to LSD1s111p, followed by the corresponding secondary antibody conjugated to Alexa-Fluor 488. Total nuclear fluorescence (TNFI) values for xenografted MDA-MB-231 cells were calculated. Data shown represents the mean±SE for at least 20 individual cells.

[9] = test system: PD-L1; conditions: CTCs from metastatic breast cancer patients, in all but one patient, FIG. 17
Experimental: (§4) Cells were permeabilised by incubating with 2% Triton X-100 for 20 min. Cells were probed with either rabbit antibodies to LSD1s111p (Merck ABE1462), EGFR (AB2430), MET (ab51067), PD-L1 (sc-50298), goat antibodies to PD-L1 (sc-19091), SC-14033), (sc-19096), mouse antibodies to Cytokeratin (Miltenyi 130-090-866), CSV (Abnova H00007431-M08), vimentin (SC-6260) followed by visualisation with secondary anti mouse Alexa-Fluor 568 (A10037), secondary anti rabbit Alexa-Fluor 488 (A21206) or secondary anti goat Alexa-Fluor 633 (A21082). Cover slips were mounted on glass microscope slides with ProLong Diamond Antifade© reagent (Life Technologies). Antibody staining was localised by confocal laser scanning microscopy. Single 0.5 μm sections were obtained using a Nikon x 60 oil immersion lens on the Nikon C1 plus confocal system running NIS-Elements AR 3.2 software. […] Digital confocal images were analysed using ImageJ software (ImageJ, NIH, Bethesda, Md., USA) to determine the nuclear/cytoplasmic fluorescence ratio (Fn/c) using the equation: Fn/c=(Fn−Fb)/(Fc−Fb), where Fn is nuclear fluorescence, Fc is cytoplasmic fluorescence, and Fb is background fluorescence or the Total Nuclear Fluorescence (TNFI), the Total Cytoplasmic Fluorescence (TCFI) or Total cell fluorescence. […] Florescence intensity was also measured in a minimum of n=10 cells for each sample set. […]

[10] = test system: cytokeratin; conditions: CTCs from two metastatic breast cancer patient liquid biopsies, FIG. 16
Experimental: as §4

[11] = test system: SNAIL; conditions: CTCs from metastatic breast cancer patients, in all but one patient, FIG. 17
Experimental: as §4

[12] = target: T2, LSD1s111p (Homo sapiens, UniProt O60341); experiment: Confocal microscopy of LSD1s111p in patient circulating tumor cells; type: cell-based; conditions: CTCs from two metastatic breast cancer patient liquid biopsies, FIG. 16
T2 construct: endogenous in cells; host or cells: circulating tumor cells from metastatic breast cancer patient blood
Excerpt: as §2

[13] = test system: PD-L2; conditions: CTCs from two metastatic breast cancer patient liquid biopsies, FIG. 16
Experimental: as §4

[14] = test system: LSD1 phosphorylated at serine 111 (LSD1s111p); experiment: LSD1s111p in MCF7 cells treated with PKC inhibitors, confocal microscopy; type: cell-based, human; conditions: FIG. 26
Experimental: (§3) Confocal laser scanning microscopy was performed on either MDA-MB-231 cells treated with vehicle alone or MCF7 cells treated with vehicle alone or PMA for 60 hours. To assess the effect of the PKC inhibitors, C27 (Compound 27; (R)-2-((S)-4-(3-chloro-5-fluoro-6-(1H-pyrazolo[3,4-b]pyridine-3-yl)pyridine-2-yl)piperazin-2-yl)-3-methylbutan-2-ol; see Jimenez et al. (2013) J. Med. Chem., 56(5): 1799-1810) or bisindolylmaleimide (BIM), cells were then treated with C27, BIM or vehicle. Cells were fixed with 3.7% formaldehyde and permeabilized with 2% Triton-X-100, and were then probed with primary rabbit antibody to PKC-θ and a primary mouse antibody to LSD1 or LSD1 phosphorylated at serine 111 (LSD1s111p), respectively, followed by the corresponding secondary antibody conjugated to Alexa-Fluor 488 or Alexa-Fluor 568. Total nuclear fluorescence (TNFI) values for non-stimulated and stimulated MCF7 and MDA-MB-231 cells were calculated. […] The plot-profile feature of ImageJ was used to plot the fluorescence signal intensity along a single line spanning the nucleus (n=5 lines per nucleus, 5 individual cells). The average fluorescence signal intensity for the indicated pair of antibodies was plotted for each point on the line with SE. […] The PCC was determined for each plot profile, which indicates the strength of relation between the two fluorochrome signals for at least 20 individual cells ±SE. […]

[15] = test system: LSD1 phosphorylated at serine 111 (LSD1s111p); experiment: LSD1s111p in MDA-MB-231 cells treated with PKC inhibitors, confocal microscopy; type: cell-based, human; conditions: FIG. 26
Experimental: as §3

[16] = test system: cytokeratin; experiment: Confocal microscopy of cytokeratin in xenografted MDA-MB-231 cells; type: in vivo, mouse; conditions: xenograft MDA-MB-231 cells; Abraxane 60 mg/kg, Phenelzine 41 mg/kg, FIG. 9
Excerpt: as §2

[17] = test system: PD-L1; experiment: Confocal microscopy of PD-L1 in xenografted MDA-MB-231 cells; type: in vivo, mouse; conditions: xenograft MDA-MB-231 cells; Abraxane 60 mg/kg, Phenelzine 41 mg/kg, FIG. 9
Excerpt: as §2

[18] = test system: cell surface vimentin (CSV); experiment: Confocal microscopy of cell surface vimentin in xenografted MDA-MB-231 cells; type: in vivo, mouse; conditions: xenograft MDA-MB-231 cells; Abraxane 60 mg/kg, Phenelzine 41 mg/kg, FIG. 10
Excerpt: as §2

Row | Compound | nuclear fluorescence signal of LSD1 [1] | nuclear fluorescence signal of SNAIL [2] | nuclear fluorescence signal of SNAIL [3] | nuclear fluorescence signal of LSD1 [4] | EGFR nuclear expression (TNFI) [6] | LSD1s111p expression, nuclear fluorescent signal (TNFI) [8] | PD-L1 expression (total cell fluorescence) [9] | expression of cytokeratin (TCFI) [10] | SNAIL expression (total cell fluorescence) [11] | expression of LSD1s111p (TCFI) [12] | expression of PD-L2 (TCFI) [13] | LSD1 phosphorylation (LSD1s111p, TNFI) [14] | LSD1 phosphorylation (LSD1s111p, TNFI) [15] | also measured
1 | Cc1cccc(CNC(=O)C(CCCCN[C@@H]2C[C@H]2c2ccccc2)NC(=O)c2ccc(-c3ccccc3)cc2)c1.Cl (relative stereo) [NCD36, 2-[N-(4-phenylbenzenecarbonyl)]amino-6-(trans-2-phenylcyclopropan-1-amino)-N-(3-methylbenzyl)hexanamide hydrochloride] | significantly abrogated | significantly abrogated | significantly abrogated | significantly abrogated | – | – | – | – | – | – | – | – | – | –
2 | CC(=O)O[C@@]12CO[C@@H]1C[C@H](O)[C@@]1(C)C(=O)[C@H](O)C3=C(C)[C@@H](OC(=O)[C@H](O)[C@@H](NC(=O)OC(C)(C)C)c4ccccc4)C[C@@](O)([C@@H](OC(=O)c4ccccc4)[C@H]21)C3(C)C [Docetaxel] | – | – | – | – | significantly increased | significantly increased | – | – | – | – | – | – | – | SNAIL nuclear fluorescent signal (TNFI) [5]: significantly increased; MET nuclear expression (TNFI) [7]: significantly increased
3 | C#CCN(C)Cc1ccccc1 [Pargyline, pargyline] | significantly abrogated | significantly abrogated | significantly abrogated | significantly abrogated | – | – | significant knockdown | significant knockdown | significant knockdown | significant knockdown | significant knockdown | – | – | –
4 | CC(C)[C@@](C)(O)[C@@H]1CN(c2nc(-c3n[nH]c4ncccc34)c(F)cc2Cl)CCN1 [Peptide C27, (R)-2-((S)-4-(3-chloro-5-fluoro-6-(1H-pyrazolo[3,4-b]pyridine-3-yl)pyridine-2-yl)piperazin-2-yl)-3-methylbutan-2-ol] | – | – | – | – | – | – | – | – | – | – | – | significantly abrogated | significantly abrogated | –
5 | NNCCc1ccccc1 [Phenelzine, (+)-2-phenylethylhydrazine] | – | – | – | – | inhibitory effect | inhibitory effect | significant knockdown | significant knockdown | significant knockdown | significant knockdown | significant knockdown | – | – | cytokeratin expression [16]: abrogated; PD-L1 expression in the cytoplasm (TCFI) [17]: significantly abrogated; PD-L1 expression in the nucleus (TNFI) [17]: significantly abrogated; PD-L1 nuclear bias (Fn/c) [17]: higher; total PD-L1 expression [17]: significantly reduced; cell surface vimentin (CSV) cytoplasmic expression (TCFI) [18]: abrogated
6 | bisindolylmaleimide [BIM] | – | – | – | – | – | – | – | – | – | – | – | significantly abrogated | significantly abrogated | –
